# From paper PMC5862592, “CDK8/19 inhibition induces premature G1/S transition and ATR-dependent cell death in prostate cancer cells” (Oncotarget, 2018)
# Read-outs that look alike come from different tables or passages of the source.
# What was measured:
# Test in all cases: biochemical
# Parameters in all cases: KINOMEscan active site-directed competition binding assay (DiscoveRx), 456 kinases, per cent of control at 300 nM
# Conditions in all cases: read-out: Percent of Control (%)
# [1] = target: T1, ABL1(H396P)-nonphosphorylated (Homo sapiens, UniProt P00519, H396P)
# T1 construct: nonphosphorylated
# Protocol: (§1) Kinase selectivity of T-474 and T-418 was evaluated at 300 nmol/L using a panel of 456 kinases at DiscoveRx (KINOMEscan). The platform employs an active site-directed competition binding assay to quantitatively measure interactions between test compounds and kinases. […] In VCaP prostate cancer cells, treatment with T-474 or T-418 suppressed the phosphorylation of the known CDK8 substrate STAT1 at Ser727 both in the absence and in the presence of IFN-γ (Figure 1B), which stimulates CDK8-mediated STAT1 phosphorylation.
# [2] = target: T2, ABL1(Q252H)-phosphorylated (Homo sapiens, UniProt P00519, Q252H)
# T2 construct: phosphorylated
# Protocol: as §1
# ACVR2B = ACVR2B (Homo sapiens, UniProt Q13705)
# Protocol: as §1
# ASK1 = target: T3, ASK1 (Homo sapiens, UniProt Q99683)
# T3 construct: gene MAP3K5
# T3 sequence (Q99683 whole entry): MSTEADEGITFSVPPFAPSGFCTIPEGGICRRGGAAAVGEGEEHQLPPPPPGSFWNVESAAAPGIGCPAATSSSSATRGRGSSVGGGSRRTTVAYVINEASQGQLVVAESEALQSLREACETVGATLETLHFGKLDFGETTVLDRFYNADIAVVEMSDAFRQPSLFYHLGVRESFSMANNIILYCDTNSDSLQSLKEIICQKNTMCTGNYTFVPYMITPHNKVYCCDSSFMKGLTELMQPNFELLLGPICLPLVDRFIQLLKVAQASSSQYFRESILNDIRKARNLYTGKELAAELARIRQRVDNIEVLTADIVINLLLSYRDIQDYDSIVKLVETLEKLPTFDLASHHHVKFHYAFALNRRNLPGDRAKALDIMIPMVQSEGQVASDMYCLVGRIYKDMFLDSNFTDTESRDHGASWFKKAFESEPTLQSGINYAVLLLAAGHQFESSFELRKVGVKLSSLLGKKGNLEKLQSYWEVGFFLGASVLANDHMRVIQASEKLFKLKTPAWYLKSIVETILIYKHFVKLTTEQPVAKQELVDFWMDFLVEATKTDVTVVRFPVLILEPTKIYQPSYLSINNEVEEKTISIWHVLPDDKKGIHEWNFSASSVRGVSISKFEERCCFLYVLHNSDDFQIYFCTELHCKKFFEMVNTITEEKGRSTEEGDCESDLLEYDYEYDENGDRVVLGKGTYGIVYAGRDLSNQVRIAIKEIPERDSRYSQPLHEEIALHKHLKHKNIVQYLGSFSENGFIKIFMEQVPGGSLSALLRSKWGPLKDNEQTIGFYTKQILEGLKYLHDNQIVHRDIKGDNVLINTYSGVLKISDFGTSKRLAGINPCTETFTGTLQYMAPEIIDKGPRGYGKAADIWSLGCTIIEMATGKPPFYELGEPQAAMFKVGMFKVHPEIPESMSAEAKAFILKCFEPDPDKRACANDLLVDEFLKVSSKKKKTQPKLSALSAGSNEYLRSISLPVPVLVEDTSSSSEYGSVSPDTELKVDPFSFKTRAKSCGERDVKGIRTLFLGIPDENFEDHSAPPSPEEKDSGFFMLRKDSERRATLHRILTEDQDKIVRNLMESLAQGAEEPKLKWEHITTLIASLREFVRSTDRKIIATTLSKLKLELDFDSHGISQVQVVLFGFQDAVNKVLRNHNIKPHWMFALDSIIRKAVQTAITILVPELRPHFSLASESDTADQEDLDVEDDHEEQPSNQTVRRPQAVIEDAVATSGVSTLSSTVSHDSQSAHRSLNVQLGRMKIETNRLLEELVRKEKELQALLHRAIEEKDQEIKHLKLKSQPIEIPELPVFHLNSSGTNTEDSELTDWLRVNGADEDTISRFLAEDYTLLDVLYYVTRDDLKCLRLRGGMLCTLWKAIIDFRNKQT
# Protocol: as §1
# CDKL1 = CDKL1 (Homo sapiens, UniProt Q00532)
# Protocol: as §1
# CLK3 = CLK3 (Homo sapiens, UniProt P49761)
# Protocol: as §1
# ERBB2 = ERBB2 (Homo sapiens, UniProt P04626)
# Protocol: as §1
# ERBB4 = ERBB4 (Homo sapiens, UniProt Q15303)
# Chain of ERBB4 (Q15303 whole entry): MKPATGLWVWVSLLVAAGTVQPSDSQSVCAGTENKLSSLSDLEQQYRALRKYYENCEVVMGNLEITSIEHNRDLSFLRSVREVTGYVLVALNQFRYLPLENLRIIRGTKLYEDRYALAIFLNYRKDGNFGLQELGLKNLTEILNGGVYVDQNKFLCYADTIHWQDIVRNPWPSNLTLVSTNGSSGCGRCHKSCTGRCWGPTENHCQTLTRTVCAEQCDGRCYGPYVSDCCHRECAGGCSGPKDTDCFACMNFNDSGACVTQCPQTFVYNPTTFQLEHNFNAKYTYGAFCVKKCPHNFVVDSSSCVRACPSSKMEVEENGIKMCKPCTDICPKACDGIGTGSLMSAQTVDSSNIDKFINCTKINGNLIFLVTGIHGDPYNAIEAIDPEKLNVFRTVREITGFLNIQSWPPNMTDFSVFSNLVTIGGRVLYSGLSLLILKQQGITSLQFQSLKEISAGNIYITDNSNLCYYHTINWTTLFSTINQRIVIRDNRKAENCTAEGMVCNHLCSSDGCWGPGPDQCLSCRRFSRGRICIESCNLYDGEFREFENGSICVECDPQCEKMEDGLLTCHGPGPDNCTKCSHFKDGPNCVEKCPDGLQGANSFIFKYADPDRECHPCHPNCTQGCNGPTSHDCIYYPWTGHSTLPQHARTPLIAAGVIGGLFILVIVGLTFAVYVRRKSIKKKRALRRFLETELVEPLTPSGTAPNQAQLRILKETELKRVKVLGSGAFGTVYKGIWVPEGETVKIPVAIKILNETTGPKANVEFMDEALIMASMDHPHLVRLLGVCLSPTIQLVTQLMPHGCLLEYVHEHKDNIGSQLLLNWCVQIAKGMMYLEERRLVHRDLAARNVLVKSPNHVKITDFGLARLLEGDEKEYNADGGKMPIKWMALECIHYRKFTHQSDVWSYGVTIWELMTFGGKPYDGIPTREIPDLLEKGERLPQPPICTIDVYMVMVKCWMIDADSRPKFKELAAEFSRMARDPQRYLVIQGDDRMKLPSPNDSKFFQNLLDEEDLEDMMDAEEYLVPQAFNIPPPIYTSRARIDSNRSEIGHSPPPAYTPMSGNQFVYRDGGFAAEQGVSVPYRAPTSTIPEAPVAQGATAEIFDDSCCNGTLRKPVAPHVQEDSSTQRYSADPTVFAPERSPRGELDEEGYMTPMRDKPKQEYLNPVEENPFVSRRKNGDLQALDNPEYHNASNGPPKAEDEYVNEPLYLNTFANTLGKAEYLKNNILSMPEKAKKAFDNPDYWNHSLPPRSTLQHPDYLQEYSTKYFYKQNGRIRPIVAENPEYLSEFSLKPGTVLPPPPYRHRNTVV
# Protocol: as §1
# FGFR3(G697C) = FGFR3(G697C) (Homo sapiens, UniProt P22607, G697C)
# Chain of FGFR3(G697C) (P22607 whole entry G697C): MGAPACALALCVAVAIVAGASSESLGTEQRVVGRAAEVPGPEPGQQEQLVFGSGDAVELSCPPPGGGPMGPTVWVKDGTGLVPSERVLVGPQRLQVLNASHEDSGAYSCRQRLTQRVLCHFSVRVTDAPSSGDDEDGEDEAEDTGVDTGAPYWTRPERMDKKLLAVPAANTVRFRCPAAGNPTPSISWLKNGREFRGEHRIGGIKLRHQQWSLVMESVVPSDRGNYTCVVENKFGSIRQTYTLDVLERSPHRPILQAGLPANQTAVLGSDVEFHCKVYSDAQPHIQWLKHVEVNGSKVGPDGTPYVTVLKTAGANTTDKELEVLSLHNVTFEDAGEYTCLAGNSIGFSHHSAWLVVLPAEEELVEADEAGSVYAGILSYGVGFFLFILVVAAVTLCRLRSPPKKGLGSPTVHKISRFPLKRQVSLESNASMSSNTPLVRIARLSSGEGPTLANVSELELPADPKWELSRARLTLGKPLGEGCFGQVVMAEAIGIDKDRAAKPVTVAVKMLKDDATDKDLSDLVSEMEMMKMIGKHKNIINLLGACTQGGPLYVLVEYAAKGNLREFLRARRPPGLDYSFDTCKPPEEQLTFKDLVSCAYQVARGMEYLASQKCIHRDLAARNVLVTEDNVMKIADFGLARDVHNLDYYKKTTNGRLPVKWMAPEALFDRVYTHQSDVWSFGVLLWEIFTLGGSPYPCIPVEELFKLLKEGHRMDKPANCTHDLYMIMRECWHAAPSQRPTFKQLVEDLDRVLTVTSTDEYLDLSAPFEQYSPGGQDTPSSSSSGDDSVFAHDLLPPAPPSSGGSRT
# Protocol: as §1
# GAK = GAK (Homo sapiens, UniProt O14976)
# Protocol: as §1
# [3] = target: T4, JAK2(JH1domain-catalytic) (Homo sapiens, UniProt O60674)
# T4 construct: JH1domain-catalytic
# Protocol: as §1
# KIT(D816H) = KIT(D816H) (Homo sapiens, UniProt P10721, D816H)
# Protocol: as §1
# MEK2 = target: T5, MEK2 (Homo sapiens, UniProt P36507)
# T5 construct: gene MAP2K2
# Protocol: as §1
# MLCK = target: T6, MLCK (Homo sapiens, UniProt Q32MK0)
# T6 construct: gene MYLK3
# Protocol: as §1
# NDR1 = target: T7, NDR1 (Homo sapiens, UniProt Q15208)
# T7 construct: gene STK38
# Protocol: as §1
# PCTK1 = target: T8, PCTK1 (Homo sapiens, UniProt Q00536)
# T8 construct: gene CDK16
# Protocol: as §1
# PCTK2 = target: T9, PCTK2 (Homo sapiens, UniProt Q00537)
# T9 construct: gene CDK17
# Protocol: as §1
# PLK2 = PLK2 (Homo sapiens, UniProt Q9NYY3)
# Protocol: as §1
# ROCK2 = ROCK2 (Homo sapiens, UniProt O75116)
# Chain of ROCK2 (O75116 whole entry): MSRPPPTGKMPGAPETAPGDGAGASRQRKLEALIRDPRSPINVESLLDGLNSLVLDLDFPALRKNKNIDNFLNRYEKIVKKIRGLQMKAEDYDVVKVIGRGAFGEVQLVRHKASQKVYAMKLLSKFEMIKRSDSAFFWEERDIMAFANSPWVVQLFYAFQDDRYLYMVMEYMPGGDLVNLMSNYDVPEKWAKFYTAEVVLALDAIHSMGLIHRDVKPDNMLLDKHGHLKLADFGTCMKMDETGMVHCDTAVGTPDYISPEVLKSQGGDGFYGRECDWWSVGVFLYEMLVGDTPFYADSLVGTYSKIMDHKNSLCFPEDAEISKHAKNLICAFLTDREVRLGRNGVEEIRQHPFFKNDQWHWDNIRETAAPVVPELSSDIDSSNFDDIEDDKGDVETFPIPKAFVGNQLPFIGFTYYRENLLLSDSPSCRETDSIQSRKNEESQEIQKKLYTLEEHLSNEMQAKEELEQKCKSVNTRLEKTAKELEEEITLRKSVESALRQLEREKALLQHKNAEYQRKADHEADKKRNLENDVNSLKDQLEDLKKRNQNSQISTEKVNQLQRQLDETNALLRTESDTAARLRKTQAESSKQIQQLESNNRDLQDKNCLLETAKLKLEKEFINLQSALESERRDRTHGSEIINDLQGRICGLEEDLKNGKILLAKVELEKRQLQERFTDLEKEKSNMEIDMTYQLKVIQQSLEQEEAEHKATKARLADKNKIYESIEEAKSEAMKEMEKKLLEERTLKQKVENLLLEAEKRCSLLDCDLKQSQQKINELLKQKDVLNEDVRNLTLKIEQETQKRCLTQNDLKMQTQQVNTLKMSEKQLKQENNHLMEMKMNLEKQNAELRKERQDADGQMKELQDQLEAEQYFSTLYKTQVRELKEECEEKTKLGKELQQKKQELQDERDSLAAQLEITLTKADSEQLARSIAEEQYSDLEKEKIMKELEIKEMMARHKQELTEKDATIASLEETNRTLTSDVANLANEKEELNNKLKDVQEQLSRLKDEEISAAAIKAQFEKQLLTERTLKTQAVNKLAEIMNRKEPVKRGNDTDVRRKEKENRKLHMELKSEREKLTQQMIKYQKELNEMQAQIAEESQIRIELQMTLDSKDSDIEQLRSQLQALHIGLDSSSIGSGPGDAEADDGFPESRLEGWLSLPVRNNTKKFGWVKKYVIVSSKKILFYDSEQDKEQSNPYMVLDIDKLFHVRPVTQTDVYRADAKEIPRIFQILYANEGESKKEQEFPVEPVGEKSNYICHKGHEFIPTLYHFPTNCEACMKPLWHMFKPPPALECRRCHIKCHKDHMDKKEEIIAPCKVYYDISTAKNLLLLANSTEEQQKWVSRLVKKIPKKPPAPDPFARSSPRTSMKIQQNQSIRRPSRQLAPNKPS
# Protocol: as §1
# [4] = target: T10, RSK3(Kin.Dom.2-C-terminal) (Homo sapiens, UniProt Q15349)
# T10 construct: gene RPS6KA2; Kin.Dom.2-C-terminal
# Protocol: as §1
# [5] = target: T11, RSK4(Kin.Dom.1-N-terminal) (Homo sapiens, UniProt Q9UK32)
# T11 construct: gene RPS6KA6; Kin.Dom.1-N-terminal
# Protocol: as §1
smiles,measurement,setting,value
"Cc1ncccc1Oc1sc(C(N)=O)c2c1-c1c(cnn1C)CC2 [T-474, 1-methyl-8-((2-methylpyridin-3-yl)oxy)-4,5-dihydro-1H-thieno[3,4-g]indazole-6-carboxamide]",remaining binding at 0.3 µM,[1],100%
same,remaining binding at 0.3 µM,[2],89%
same,remaining binding at 0.3 µM,ACVR2B,81%
same,remaining binding at 0.3 µM,ASK1,81%
same,remaining binding at 0.3 µM,CDKL1,76%
same,remaining binding at 0.3 µM,CLK3,100%
same,remaining binding at 0.3 µM,ERBB2,47%
same,remaining binding at 0.3 µM,ERBB4,100%
same,remaining binding at 0.3 µM,FGFR3(G697C),59%
same,remaining binding at 0.3 µM,GAK,92%
same,remaining binding at 0.3 µM,[3],100%
same,remaining binding at 0.3 µM,KIT(D816H),78%
same,remaining binding at 0.3 µM,MEK2,100%
same,remaining binding at 0.3 µM,MLCK,100%
same,remaining binding at 0.3 µM,NDR1,39%
same,remaining binding at 0.3 µM,PCTK1,100%
same,remaining binding at 0.3 µM,PCTK2,100%
same,remaining binding at 0.3 µM,PLK2,67%
same,remaining binding at 0.3 µM,ROCK2,81%
same,remaining binding at 0.3 µM,[4],100%
same,remaining binding at 0.3 µM,[5],100%
"O=C(/C=C/c1cnccc1-c1ccc(F)cc1)Nc1ccc(CCc2nnco2)cc1 [T-418, (2E)-3-(4-(4-fluorophenyl)pyridin-3-yl)-N-(4-(2-(1,3,4-oxadiazol-2-yl)ethyl)phenyl)acrylamide]",remaining binding at 0.3 µM,[1]; sheet T-418,97%
same,remaining binding at 0.3 µM,[2]; sheet T-418,84%
same,remaining binding at 0.3 µM,ACVR2B; sheet T-418,80%
same,remaining binding at 0.3 µM,ASK1; sheet T-418,92%
same,remaining binding at 0.3 µM,CDKL1; sheet T-418,88%
same,remaining binding at 0.3 µM,CLK3; sheet T-418,92%
same,remaining binding at 0.3 µM,ERBB2; sheet T-418,52%
same,remaining binding at 0.3 µM,ERBB4; sheet T-418,89%
same,remaining binding at 0.3 µM,FGFR3(G697C); sheet T-418,66%
same,remaining binding at 0.3 µM,GAK; sheet T-418,100%
same,remaining binding at 0.3 µM,[3]; sheet T-418,100%
same,remaining binding at 0.3 µM,KIT(D816H); sheet T-418,74%
same,remaining binding at 0.3 µM,MEK2; sheet T-418,100%
same,remaining binding at 0.3 µM,MLCK; sheet T-418,88%
same,remaining binding at 0.3 µM,NDR1; sheet T-418,46%
same,remaining binding at 0.3 µM,PCTK1; sheet T-418,98%
same,remaining binding at 0.3 µM,PCTK2; sheet T-418,100%
same,remaining binding at 0.3 µM,PLK2; sheet T-418,57%
same,remaining binding at 0.3 µM,ROCK2; sheet T-418,92%
same,remaining binding at 0.3 µM,[4]; sheet T-418,100%
same,remaining binding at 0.3 µM,[5]; sheet T-418,100%
